Experimental data as given in US12421235B2, “Bridged tricyclic carbamoylpyridone compounds and uses thereof” (Gilead Sciences, Inc., priority 2020, dated 2025).
pEC50: −log10 of the molar value. Like-named read-outs stand apart in the source and are kept apart here.

Columns and labels:
[1] = High throughput microsomal stability assay (human liver microsomes); assay type: in vitro ADME; conditions: for HLM stability: human liver microsomes, 1 uM compound, NADPH + UDPGA cofactors, 37 C
Method: Example 49: High Throughput Microsomal Stability Assay
Metabolic stability of compounds was assessed using Human, or Rat Liver Microsomal assays (Corning). In this assay, 10 nL compounds at concentration of 1 mM in 100% DMSO were dispensed into 384-well polypropylene plates using the Echo 550 acoustic liquid dispenser (Labcyte®). Each plate contained 384 wells with a single test compound in each well.
A solution of human (Corning® Gentest™ Human Mixed Pooled Microsomes), or rat (Corning® Gentest™ Rat [Sprague-Dawley] Pooled Liver Microsomes) liver microsomes at 2 mg/ml in 100 mM K2HPO4/KH2PO4 pH 7.4 with Alamethicin from Trichoderma viride (Sigma-Aldrich) 0.0225 mg/ml were incubated on ice for 15 minutes. 5 uL of this solution was added to individual wells following 15 minute incubation at room temperature; and supplemented with 5 uL NADPH Regenerating Solution of cofactors (Corning® Gentest™ UGT Reaction Mix) containing 100 mM K2HPO4/KH2PO4 pH 7.4, 2.6 mM NADP+, 6.6 mM glucose-6-phosphate, 6.6 mM MgCl2, 0.8 U/mL glucose-6-phosphate dehydrogenase, 0.1 mM Sodium Citrate, 6.8 mM uridine diphosphate-glucuronic acid. Final concentration of analyte compounds at the beginning of the reaction was 1 uM. The reactions were incubated at 37° C. and time points of 0, 5, 15, 30, 40, 50, 60, and 70 minutes were collected for further analysis. Background data were collected using reactions without analyte compounds.
Upon collection of the reaction time points, samples were quenched with 30 uL of a solution of 72% acetonitrile, 8% methanol, 0.1% formic acid, 19.9% water, and internal standard (IS). Reaction plates were span in a centrifuge at speed of 4,000 rcf for 30 minutes and 4° C., following a dilution of the 10 uL quenched reaction into 40 uL de-ionized water, yielding assay plates.
Assay plates were analyzed using solid-state extraction coupled with quadrupole time-of-flight mass spectrometer, using Agilent QToF 6530 RapidFire 360 system, with C4 type A solid state cartridges. Analysis was performed in either positive or negative ionization modes. Mobile phases contained 0.1% formic acid in water for loading analytes onto solid state extraction cartridges, and 0.1% formic acid in acetonitrile for elution into mass spectrometer in positive ionization mode, or 0.1% acetic acid in water for loading and 0.1% acetic acid in acetonitrile for extraction in negative ionization mode. Peak-area ratios of integrated counts for individual compounds to IS were plotted as semi-logarithmic chart of log vs time. Initial, linear portion of decay was fitted to a linear regression equation to derive half time of a compound decay.
Pharmacological parameters for an analyte compound metabolism were calculated using the following equations: […]
Where. Calculation of In Vitro Intrinsic Clearance
Concentration refers to the protein concentration (mg/mL) in the reaction.
Calculation of In Vivo Intrinsic Clearance
This scales the in vitro intrinsic clearance up to the value that would be predicted for the entire mass of liver tissue (but with no restriction by blood flow). The value depends upon the size of the liver (species-dependent) and the yield of microsomal protein as appropriate (assumed to be species-independent).
Calculation of Predicted Clearance
Hepatic clearance will depend upon the inter-relationship of intrinsic clearance and hepatic blood flow and can be predicted from in vitro data using a variety of approaches.
Calculation of Hepatic Extraction
This is simply the predicted clearance expressed as a proportion of hepatic blood flow. E=CL/QH*100%
Intrinsic clearance of the instant compounds, as well as for reference compounds A-F, were calculated following the procedure above.

[2] = system: HIV-1 (IIIB) in MT-4 cells; experiment: HIV MT-4 antiviral assay; assay type: cell-based; conditions: Human immunodeficiency virus 1, MT4, 120 h, 5 days, Cell Titer Glo
Method: Example 47: HIV MT-4 Antiviral and Cytotoxicity Assay
Antiviral Assay in MT-4 Cells
(§1) Compounds were tested in a high-throughput 384-well assay format for their ability to inhibit the replication of HIV-1 (IIIB) in MT-4 cells. Compounds were serially diluted (1:3) in DMSO on 384-well polypropylene plates and further diluted 200-fold into complete RPMI media (10% FBS, 1% P/S) using the Biotek Micro Flow and Labcyte ECHO acoustic dispenser. Each plate contained up to 8 test compounds, with negative (No Drug Control) and 5 μM AZT positive controls. MT-4 cells were pre-infected with 10 μL of either RPMI (mock-infected) or a fresh 1:250 dilution of HIV-1 IIIB concentrated virus stock. Infected and uninfected MT-4 cells were further diluted in complete RPMI media and added to each plate using a Micro Flow dispenser. After 5 days incubation in a humidified and temperature controlled incubator (37° C.), Cell Titer Glo (Promega) was added to the assay plates and chemiluminescence read using an Envision plate-reader. EC50 values were defined as the compound concentration that causes a 50% decrease in luminescence signal, and were calculated using a sigmoidal dose-response model to generate curve fits.

[3] = system: pLai RLuc reporter virus in MT-4 cells; experiment: HIV MT-4 serum shift antiviral reporter assay; assay type: cell-based; conditions: Human immunodeficiency virus 1, MT4, 72 h, read-out: RLUC CCM
Method: Example 48: HIV MT-4 Serum Shift Antiviral Reporter Assay
To quantify the amount of protein binding to human serum, compounds were serially diluted (1:3) in DMSO and acoustically transferred onto 384-well assay plates via a Labcyte ECHO robot. Each plate contained up to 8 test compounds, including negative and positive controls, (DMSO, 5 μM AZT respectively). Assay plates were prepared in duplicate, and tested in either CCM (cell culture media) or HS/CCM (human serum/cell culture media). MT-4 cells were first pre-infected with pLai RLuc reporter virus for 2 h at 37° C., then further diluted in either CCM (RPMI media, 10% FBS, 1% P/S) or HS/CCM (RPMI media, 10% FBS, 50% HS, 1% P/S), and subsequently added to each plate using a Biotek Micro Flow dispenser. After a 72-h incubation in a humidified and temperature controlled incubator (37° C.), Renilla Glo (Promega) was added to all assay plates and chemiluminescence read using an Envision plate-reader. EC50 values were defined as the compound concentration that causes a 50% decrease in luminescence signal, and were calculated using a sigmoidal dose-response model to generate curve fits. To determine the amount of protein binding, EC50 fold shifts (or EC50 shifts) were calculated by dividing EC50 (HS/CCM)/EC50 (CCM). […]

[4] = Cytotoxicity assay in MT-4 cells; assay type: cell-based; conditions: human, uninfected MT-4 cells, Cell Titer Glo
Method: as §1, with “fits. Cytotoxicity Assay in MT-4 Cells Assays were performed as above except uninfected MT-4 cells were added to each well containing test compound. In addition, 10 μM puromycin was added to the last column of each assay plate to assess a base level of cytotoxicity.” for “fits.”

| SMILES | HLM stability [1] | MS Cl improvement ([1]; relative to compound B) | pEC50 [2] | pEC50 [3] | CC50 at 5 days [4] | MS Cl improvement ([1]; relative to compound C) | MS Cl improvement ([1]; relative to compound D) | MS Cl improvement [1] |
| --- | --- | --- | --- | --- | --- | --- | --- | --- |
| CO[C@H]1CC[C@H](C)N2C[C@H]1n1cc(C(=O)NCc3ccc(F)cc3F)c(=O)c(O)c1C2=O [Example 3, (3S,6S,7R)—N-(2,4-difluorobenzyl)-12-hydroxy-6-methoxy-3-methyl-1,11-dioxo-1,4,5,6,7,11-hexahydro-3H-2,7-methanopyrido[1,2-a][1,4]diazonine-10-carboxamide] | 2.5 mL/min/kg | 3.2 times relative to compound B | 8.82 | 9.38 | 16500 nM | – | – | – |
| CO[C@@H]1C=C[C@H](C)N2C[C@H]1n1cc(C(=O)NCc3c(F)cc(F)cc3F)c(=O)c(O)c1C2=O [Example 4, (3S,6R,7R)-12-hydroxy-6-methoxy-3-methyl-1,11-dioxo-N-(2,4,6-trifluorobenzyl)-1,6,7,11-tetrahydro-3H-2,7-methanopyrido[1,2-a][1,4]diazonine-10-carboxamide] | 2.33 mL/min/kg | – | 8.96 | 9.47 | 11200 nM | 3.6 times relative to compound C | – | – |
| C[C@H]1CC[C@@H](O)[C@H]2CN1C(=O)c1c(O)c(=O)c(C(=O)NCc3c(F)cc(F)cc3F)cn12 [Example 5, (3S,6R,7R)-6,12-dihydroxy-3-methyl-1,11-dioxo-N-(2,4,6-trifluorobenzyl)-1,4,5,6,7,11-hexahydro-3H-2,7-methanopyrido[1,2-a][1,4]diazonine-10-carboxamide] | 3.33 mL/min/kg | – | 8.74 | 9.15 | 50000 nM | – | – | – |
| CO[C@@H]1CC[C@H](C)N2C[C@H]1n1cc(C(=O)NCc3c(F)cc(F)cc3F)c(=O)c(O)c1C2=O [Example 6, (3S,6R,7R)-12-hydroxy-6-methoxy-3-methyl-1,11-dioxo-N-(2,4,6-trifluorobenzyl)-1,4,5,6,7,11-hexahydro-3H-2,7-methanopyrido[1,2-a][1,4]diazonine-10-carboxamide] | 4.83 mL/min/kg | – | 8.85 | 9.30 | 13000 nM | – | 2.3 times relative to compound D | – |
| CO[C@@H]1C=C[C@H](C)N2C[C@H]1n1cc(C(=O)NCc3ccc(F)cc3F)c(=O)c(O)c1C2=O [Example 7, (3S,6R,7R)—N-(2,4-difluorobenzyl)-12-hydroxy-6-methoxy-3-methyl-1,11-dioxo-1,6,7,11-tetrahydro-3H-2,7-methanopyrido[1,2-a][1,4]diazonine-10-carboxamide] | 3.33 mL/min/kg | – | 8.92 | 9.54 | 9910 nM | – | – | 2.0 times relative to compound E |
| CO[C@H]1C=C[C@H](C)N2C[C@H]1n1cc(C(=O)NCc3ccc(F)c(Cl)c3F)c(=O)c(O)c1C2=O [Example 9, (3S,6S,7R)—N-(3-chloro-2,4-difluorobenzyl)-12-hydroxy-6-methoxy-3-methyl-1,11-dioxo-1,6,7,11-tetrahydro-3H-2,7-methanopyrido[1,2-a][1,4]diazonine-10-carboxamide] | 8 mL/min/kg | – | 9.00 | 9.38 | 4270 nM | – | – | – |
| CO[C@@H]1C=C[C@H](C)N2C[C@H]1n1cc(C(=O)NCc3ccc(F)c(Cl)c3F)c(=O)c(O)c1C2=O [Example 10, (3S,6R,7R)—N-(3-chloro-2,4-difluorobenzyl)-12-hydroxy-6-methoxy-3-methyl-1,11-dioxo-1,6,7,11-tetrahydro-3H-2,7-methanopyrido[1,2-a][1,4]diazonine-10-carboxamide] | 6.67 mL/min/kg | – | 8.92 | 9.55 | 4020 nM | – | – | – |
| C[C@H]1CC[C@](C)(O)[C@H]2CN1C(=O)c1c(O)c(=O)c(C(=O)NCc3c(F)cc(F)cc3F)cn12 [Example 11, (1R,10S,13S)-6,13-dihydroxy-10,13-dimethyl-5,8-dioxo-N-[(2,4,6-trifluorophenyl)methyl]-2,9-diazatricyclo[7.4.1.02,7]tetradeca-3,6-diene-4-carboxamide] | 4.17 mL/min/kg | – | 8.82 | 9.08 | 38700 nM | – | 2.7 times relative to compound D | – |
| C[C@H]1C=C[C@@H](Cl)[C@H]2CN1C(=O)c1c(O)c(=O)c(C(=O)NCc3ccc(F)cc3F)cn12 [Example 13, (3S,6R,7R)-6-chloro-N-(2,4-difluorobenzyl)-12-hydroxy-3-methyl-1,11-dioxo-1,6,7,11-tetrahydro-3H-2,7-methanopyrido[1,2-a][1,4]diazonine-10-carboxamide] | 4.33 mL/min/kg | – | 8.82 | 9.26 | 15600 nM | – | – | 1.5 times relative to compound E |
